According to patent US9296759B2, “Amino-oxazine and amino-dihydrothiazine compounds as beta-secretase modulators and methods of use” (AMGEN INC., priority 2011, dated 2016):
Like-named read-outs stand apart in the source and are kept apart here.

Tests used:
Abeta 40 = test: In vivo inhibition of beta-secretase: Abeta 40 reduction in CSF and brain of the rat; conditions: 10 mpk, after 4 hrs
From the text: In Vivo Inhibition of Beta-Secretase
Several animal models, including mouse, rat, dog, and monkey, may be used to screen for inhibition of beta-secretase activity in vivo following administration of a test compound sample. Animals used in this invention can be wild type, transgenic, or gene knockout animals. For example, the Tg2576 mouse model, prepared and conducted as described in Hsiao et al., 1996, Science 274, 99-102, and other non-transgenic or gene knockout animals are useful to analyze in vivo inhibition of Amyloid beta peptide (Abeta) production in the presence of inhibitory test compounds. Generally, 2 to 18 month old Tg2576 mice, gene knockout mice or non-transgenic animals are administered test compounds formulated in vehicles, such as cyclodextran, phosphate buffers, hydroxypropyl methylcellulose or other suitable vehicles. One to twenty-four hours following the administration of compound, animals are sacrificed, and brains as well as cerebrospinal fluid (CSF) and plasma are removed for analysis of A-beta levels and drug or test compound concentrations (Dovey et al., 2001, Journal of Neurochemistry, 76, 173-181) Beginning at time 0, animals are administered by oral gavage, or other means of delivery such as intravenous injection, an inhibitory test compound of up to 100 mg/kg in a standard, conventional formulation, such as 2% hydroxypropyl methylcellulose, 1% Tween80. A separate group of animals receive 2% hydroxypropyl methylcellulose, 1% Tween80 alone, containing no test compound, and serve as a vehicle-control group. At the end of the test period, animals are sacrificed and brain tissues, plasma or cerebrospinal fluid are collected. Brains are either homogenized in 10 volumes (w/v) of 0.2% diethylamine (DEA) in 50 mM NaCl (Best et al., 2005, Journal of Pharmacology and Experimental Therapeutics, 313, 902-908), or in 10 volumes of 0.5% TritonX-100 in Tris-buffered saline (pH at about 7.6). Homogenates are centrifuged at 355,000 g, 4° C. for 30 minutes. CSF or brain supernatants are then analyzed for the presence of A-beta peptide by specific sandwich ELISA assays based on ECL (Electrochemiluminescence) technology. For example, rat Abeta40 is measured using biotinylated-4G8 (Signet) as a capture antibody and Fab40 (an in-house antibody specific to the C-terminal of Abeta40) as a detection antibody. For example, 4 hours after administration of 30 mg/kg oral dose of the test compound in 2% hydroxypropyl methylcellulose, 1% Tween80 (pH2.2) to 200 g male Sprague Dawley rats, amyloid beta peptide levels are measured for reduction by X % and Y % in cerebrospinal fluid and brain, respectively, when compared to the levels measured in the vehicle-treated rats.
• Oral: 2% HPMC, 1% Tween80, pH 2.2 • IV: 5% EtOH, 45% Propylene glycol in 5% Dextrose
The compounds of the invention may be shown to reduce the formation and/or deposition of amyloid beta peptide in the cerebrospinal fluid (CSF) as well as in the brain of a mouse or rat at either 3 mpk, 10 mpk or 30 mpk (mpk=mg compound per kg weight of the animal) dosing concentrations after 4 hrs.

[1] = test system: Aβ40 in conditioned medium of cells stably expressing Amyloid Precursor Protein (APP); test: In vitro BACE cell-based assay (HEK cell assay, Aβ40 sandwich ELISA); conditions: Homo sapiens, HEK293; average IC50, Aβ40, 24 h incubation
Procedure, shortened: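 Aβ40 in supernatants was measured by time-resolved fluorescence sandwich ELISA using pAb40 capture and biotinylated 6E10 detection, with antibody incubations at 4 °C. Stable APP cells were exposed to compounds for 24 h in a 10-point series (top dose 100 or 10 µM, 0.1% DMSO). IC50 was fitted from the concentration-response.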

Cathepsin D = Cathepsin D (Homo sapiens (Human), UniProt P07339); test: In vitro enzymatic Cat D (Cathepsin D) FRET assay; type: biochemical; conditions: average IC50
Sequence of Cathepsin D (P07339 65-412, species assumed): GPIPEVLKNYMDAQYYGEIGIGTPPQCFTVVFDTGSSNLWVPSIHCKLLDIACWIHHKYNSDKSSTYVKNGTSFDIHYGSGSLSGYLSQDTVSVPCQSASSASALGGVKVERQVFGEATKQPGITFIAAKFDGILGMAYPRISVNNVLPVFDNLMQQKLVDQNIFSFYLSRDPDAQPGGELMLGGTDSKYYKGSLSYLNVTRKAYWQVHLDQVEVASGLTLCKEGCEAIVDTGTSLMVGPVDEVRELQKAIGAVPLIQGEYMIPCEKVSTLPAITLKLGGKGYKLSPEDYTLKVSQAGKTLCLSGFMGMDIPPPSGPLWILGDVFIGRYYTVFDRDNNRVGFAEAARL
Procedure, shortened: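 CHO-expressed recombinant enzyme in 0.05 M citrate pH 3.5, 5 mM CHAPS, 10% DMSO final; reaction started with 20 nM quenched-peptide FRET substrate (cleavage site spanned by fluorophore/quencher), 1 h incubation.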

[2] = target: BACE 1 (beta secretase enzyme) (Homo sapiens (Human), UniProt P56817); test: In vitro enzymatic BACE FRET assay; type: biochemical; conditions: average IC50
Sequence of BACE 1 (beta secretase enzyme) (P56817 46-501): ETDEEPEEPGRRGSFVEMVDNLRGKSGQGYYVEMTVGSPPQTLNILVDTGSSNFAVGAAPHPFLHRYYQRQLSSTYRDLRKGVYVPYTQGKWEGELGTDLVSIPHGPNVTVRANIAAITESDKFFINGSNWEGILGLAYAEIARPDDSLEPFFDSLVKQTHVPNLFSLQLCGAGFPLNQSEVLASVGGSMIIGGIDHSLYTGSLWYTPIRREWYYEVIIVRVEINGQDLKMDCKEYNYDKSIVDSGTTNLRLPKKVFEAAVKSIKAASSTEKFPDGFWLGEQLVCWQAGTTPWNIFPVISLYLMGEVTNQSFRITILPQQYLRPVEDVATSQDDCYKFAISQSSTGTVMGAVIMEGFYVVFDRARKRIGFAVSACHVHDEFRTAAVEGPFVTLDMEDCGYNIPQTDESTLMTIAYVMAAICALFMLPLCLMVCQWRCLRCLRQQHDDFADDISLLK
Procedure, shortened: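 The enzyme was tested in 0.05 M acetate, pH 4.2, with 10% DMSO final and 100 uM genapol. The reaction was started with 50 nM quenched FRET peptide substrate, incubated one hour and stopped with Tris to neutral pH. Cleavage was read as fluorescence ([…]).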

[3] = Abeta 40, rat CSF, read-out: % reduction of rat CSF levels at 10 pmk
[4] = Abeta 40, rat brain, read-out: % reduction of rat brain levels at 10 mpk

Row | IC50 [1] [nM] | IC50 (Cathepsin D) [nM] | IC50 [2] [nM] | SMILES | inhibition in vivo at 10 mg/kg (Abeta 40; [3]) [%] | inhibition in vivo at 10 mg/kg (Abeta 40; [4]) [%]
1 | 0.5 | 256000 | 1.4 | COc1ccc(C(=O)Nc2ccc3c(c2)[C@@]2(CCOC(N)=N2)c2cc(-c4cncc(F)c4)nc(F)c2O3)nc1 [Example 87, N-((5S)-2′-amino-1-fluoro-3-(5-fluoro-3-pyridinyl)-5′,6′-dihydrospiro[chromeno[2,3-c]pyridine-5,4′-[1,3]oxazin]-7-yl)-5-methoxy-2-pyridinecarboxamide] | 75 | 53
2 | 1.5 | 963000 | 6.8 | COc1cnc(C(=O)Nc2ccc3c(c2)[C@@]2(CCOC(N)=N2)c2cc(C4CC4)ncc2O3)cn1 [Example 80, N-((5S)-2′-amino-3-cyclopropyl-5′,6′-dihydrospiro[chromeno[2,3-c]pyridine-5,4′-[1,3]oxazin]-7-yl)-5-methoxy-2-pyrazinecarboxamide] | 82 | 80
3 | 0.2 | 362000 | 0.6 | Cc1nc(C(=O)Nc2ccc3c(c2)[C@@]2(CCOC(N)=N2)c2cc(-c4cncc(F)c4)nc(F)c2O3)cs1 [Example 88, N-((5S)-2′-amino-1-fluoro-3-(5-fluoro-3-pyridinyl)-5′,6′-dihydrospiro[chromeno[2,3-c]pyridine-5,4′-[1,3]oxazin]-7-yl)-2-methyl-1,3-thiazole-4-carboxamide] | 49 | 27
4 | 0.8 | 569000 | 2.5 | COc1ccc(C(=O)Nc2ccc3c(c2)[C@@]2(CCSC(N)=N2)c2cc(C4=CCCOC4)nc(F)c2O3)nc1 [Example 111, N-((5S)-2′-amino-3-(5,6-dihydro-2H-pyran-3-yl)-1-fluoro-5′,6′-dihydrospiro[chromeno[2,3-c]pyridine-5,4′-[1,3]thiazin]-7-yl)-5-methoxy-2-pyridinecarboxamide] | 76 | 58
5 | 0.1 | 313000 | 0.9 | COc1ccc(C(=O)Nc2ccc3c(c2)[C@@]2(CCOC(N)=N2)c2cc(C4=CCCOC4)nc(F)c2O3)nc1 [Example 84, N-((5S)-2′-amino-3-(5,6-dihydro-2H-pyran-3-yl)-1-fluoro-5′,6′-dihydrospiro[chromeno[2,3-c]pyridine-5,4′-[1,3]oxazin]-7-yl)-5-methoxy-2-pyridinecarboxamide] | 83 | 71
6 | 0.7 | 198000 | 1.5 | COc1ccc(C(=O)Nc2ccc3c(c2)[C@@]2(CCSC(N)=N2)c2cc(C4=CCOCC4)nc(F)c2O3)nc1 [Example 101, N-((5S)-2′-amino-3-(3,6-dihydro-2H-pyran-4-yl)-1-fluoro-5′,6′-dihydrospiro[chromeno[2,3-c]pyridine-5,4′-[1,3]thiazin]-7-yl)-5-methoxy-2-pyridinecarboxamide] | 76 | 59

Continued, molecule first:

Row | SMILES | IC50 [1] [nM] | IC50 (Cathepsin D) [nM] | IC50 [2] [nM] | inhibition in vivo at 10 mg/kg (Abeta 40; [3]) [%] | inhibition in vivo at 10 mg/kg (Abeta 40; [4]) [%]
7 | NC1=N[C@@]2(CCO1)c1cc(NC(=O)c3ccc(F)cn3)ccc1Oc1c2cc(C2=CCOCC2)nc1F [Example 72, N-((5S)-2′-amino-3-(3,6-dihydro-2H-pyran-4-yl)-1-fluoro-5′,6′-dihydrospiro[chromeno[2,3-c]pyridine-5,4′-[1,3]oxazin]-7-yl)-5-fluoro-2-pyridinecarboxamide] | 0.2 | 358000 | 1.1 | 78 | 72
8 | NC1=N[C@@]2(CCO1)c1cc(NC(=O)c3ccc(Cl)cn3)ccc1Oc1ncc(Br)cc12 [Example 34, N-((5S)-2′-amino-3-bromo-5′,6′-dihydrospiro[chromeno[2,3-b]pyridine-5,4′-[1,3]oxazin]-7-yl)-5-chloro-2-pyridinecarboxamide] | 7 | 245000 | 13.6 | 64 | 17
9 | NC1=N[C@@]2(CCO1)c1cc(NC(=O)c3ccc(Cl)cn3)ccc1Oc1c2cc(C2=CCCOC2)nc1F [Example 39, N-((5S)-2′-amino-3-(5,6-dihydro-2H-pyran-3-yl)-1-fluoro-5′,6′-dihydrospiro[chromeno[2,3-c]pyridine-5,4′-[1,3]oxazin]-7-yl)-5-chloro-2-pyridinecarboxamide] | 0.5 | > 400000 | 2 | 85 | 80
10 | COc1ccc(C(=O)Nc2ccc3c(c2)[C@@]2(CCOC(N)=N2)c2cc(C4=CCOCC4)nc(F)c2O3)nc1 [Example 78, N-((5S)-2′-amino-3-(3,6-dihydro-2H-pyran-4-yl)-1-fluoro-5′,6′-dihydrospiro[chromeno[2,3-c]pyridine-5,4′-[1,3]oxazin]-7-yl)-5-methoxy-2-pyridinecarboxamide] | 0.2 | 184000 | 1.5 | 77 | 70
11 | NC1=N[C@@]2(CCO1)c1cc(NC(=O)c3ccc(Cl)cn3)ccc1Oc1cnc(C3=CCCOC3)cc12 [Example 59, N-((5S)-2′-amino-3-(5,6-dihydro-2H-pyran-3-yl)-5′,6′-dihydrospiro[chromeno[2,3-c]pyridine-5,4′-[1,3]oxazin]-7-yl)-5-chloro-2-pyridinecarboxamide] | 0.5 | 400000 | 3 | 57 | 50
12 | COc1cnc(C(=O)Nc2ccc3c(c2)[C@@]2(CCOC(N)=N2)c2cc(C4CC4)nc(F)c2O3)cn1 [Example 54, N-((5S)-2′-amino-3-cyclopropyl-1-fluoro-5′,6′-dihydrospiro[chromeno[2,3-c]pyridine-5,4′-[1,3]oxazin]-7-yl)-5-methoxy-2-pyrazinecarboxamide] | 9.6 | 269000 | 5 | 77 | 65
13 | COc1cnc(C(=O)Nc2ccc3c(c2)[C@@]2(CCOC(N)=N2)c2cc(C4=CCCOC4)nc(F)c2O3)cn1 [Example 51, N-((5S)-2′-amino-3-(5,6-dihydro-2H-pyran-3-yl)-1-fluoro-5′,6′-dihydrospiro[chromeno[2,3-c]pyridine-5,4′-[1,3]oxazin]-7-yl)-5-methoxy-2-pyrazinecarboxamide] | 4.2 | > 400000 | 2.7 | 85 | 76
14 | NC1=N[C@@]2(CCS1)c1cc(NC(=O)c3ccc(Cl)cn3)ccc1Oc1c2cc(C2=CCCOC2)nc1F [Example 68, N-((5S)-2′-amino-3-(5,6-dihydro-2H-pyran-3-yl)-1-fluoro-5′,6′-dihydrospiro[chromeno[2,3-c]pyridine-5,4′-[1,3]thiazin]-7-yl)-5-chloro-2-pyridinecarboxamide] | 0.5 | 217000 | 0.8 | 77 | 73
